Earlier results as cited in US10441617B2, “Breeding, production, processing and use of medical cannabis” (priority 2013, dated 2019).
Read-outs that look alike come from different tables or passages of the source.

Experiments:
[1] = tested on: aggressive human breast cancer cells; conditions: in vitro
GPR55 = GPR55 (Homo sapiens, UniProt Q9Y2T6)
CB2 receptor = CB2 receptor (Homo sapiens, UniProt P34972)
[2] = CBD 1-10 mg/kg IP over 21 days with equivalent doses of delta-9-THC
[3] = tested on: Mu and Delta opioid receptor sites
5-HT1A receptor = molecular target: T1, 5-HT1A receptor (Homo sapiens, UniProt P08908)
T1 sequence (P08908 1-422): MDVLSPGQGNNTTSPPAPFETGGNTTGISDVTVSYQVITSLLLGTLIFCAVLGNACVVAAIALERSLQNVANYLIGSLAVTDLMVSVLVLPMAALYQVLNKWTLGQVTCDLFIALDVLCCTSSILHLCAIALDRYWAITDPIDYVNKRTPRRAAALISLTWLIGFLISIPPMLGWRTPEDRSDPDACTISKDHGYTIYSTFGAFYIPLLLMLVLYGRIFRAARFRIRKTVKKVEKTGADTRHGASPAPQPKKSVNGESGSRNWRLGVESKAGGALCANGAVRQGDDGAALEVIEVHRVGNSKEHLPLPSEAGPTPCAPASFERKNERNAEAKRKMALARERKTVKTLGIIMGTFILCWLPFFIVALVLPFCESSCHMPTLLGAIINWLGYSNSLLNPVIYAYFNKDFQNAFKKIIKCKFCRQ

cannabinoid receptor CB1 = cannabinoid receptor CB1 (Homo sapiens, UniProt P21554)
cannabinoid receptor CB1, sequence (P21554 whole entry): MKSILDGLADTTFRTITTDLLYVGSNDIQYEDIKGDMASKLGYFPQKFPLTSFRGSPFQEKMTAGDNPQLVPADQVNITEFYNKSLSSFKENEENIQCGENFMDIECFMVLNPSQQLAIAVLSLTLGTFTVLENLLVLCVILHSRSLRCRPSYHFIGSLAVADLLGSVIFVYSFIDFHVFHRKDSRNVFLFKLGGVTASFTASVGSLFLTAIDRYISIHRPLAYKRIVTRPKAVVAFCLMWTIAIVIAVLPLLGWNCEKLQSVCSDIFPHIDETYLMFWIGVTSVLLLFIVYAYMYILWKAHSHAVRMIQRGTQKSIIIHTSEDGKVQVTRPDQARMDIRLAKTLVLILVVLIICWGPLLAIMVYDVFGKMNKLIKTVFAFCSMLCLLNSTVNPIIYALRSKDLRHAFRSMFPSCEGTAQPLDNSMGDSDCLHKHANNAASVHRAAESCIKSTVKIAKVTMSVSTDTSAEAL

CB2 receptor, sequence (P34972 whole entry): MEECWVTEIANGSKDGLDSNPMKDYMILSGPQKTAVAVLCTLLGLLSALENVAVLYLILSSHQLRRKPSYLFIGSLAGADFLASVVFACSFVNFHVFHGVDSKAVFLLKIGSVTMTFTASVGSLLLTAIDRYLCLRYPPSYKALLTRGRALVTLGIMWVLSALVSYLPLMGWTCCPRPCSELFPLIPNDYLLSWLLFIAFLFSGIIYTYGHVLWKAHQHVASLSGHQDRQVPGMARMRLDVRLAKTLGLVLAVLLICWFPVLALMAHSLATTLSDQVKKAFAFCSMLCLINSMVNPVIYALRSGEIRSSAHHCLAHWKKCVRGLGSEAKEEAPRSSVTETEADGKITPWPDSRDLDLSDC
GPR55, sequence (Q9Y2T6 whole entry, species assumed): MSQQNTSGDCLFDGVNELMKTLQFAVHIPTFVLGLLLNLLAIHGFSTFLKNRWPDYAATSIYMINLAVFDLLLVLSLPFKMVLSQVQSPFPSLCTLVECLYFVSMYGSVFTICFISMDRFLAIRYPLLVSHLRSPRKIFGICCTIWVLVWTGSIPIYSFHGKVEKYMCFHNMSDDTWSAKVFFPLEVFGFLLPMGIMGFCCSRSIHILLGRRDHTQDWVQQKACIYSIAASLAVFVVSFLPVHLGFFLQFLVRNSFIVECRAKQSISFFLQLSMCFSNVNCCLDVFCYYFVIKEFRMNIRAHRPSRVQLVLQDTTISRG

Row | Structure (SMILES) | Activity at CB2 receptor (CB2 receptor) | Activity at 5-HT1A receptor (5-HT1A receptor) | Activity at CB1 receptor (cannabinoid receptor CB1) | further results
1 | C=C(C)[C@@H]1CCC(C)=C[C@H]1c1c(O)cc(CCCCC)cc1O [CBD, Cannabidiol] | no affinity | 5-HT1A receptor agonist | no affinity | Growth of aggressive human breast cancer cells [1]: reduces growth; Effect of CBD on the effects of delta-9-THC (ratio of CBD/delta-9-THC 1.8): enhanced the effects of delta-9-THC; Effect of CBD on the effects of delta-9-THC (ratio of CBD/delta-9-THC around 8.1): antagonistic effects; Activity at GPR55 (GPR55): antagonist; Behavioral effects of delta-9-THC [2]: augmented the anxiogenic and locomotor suppressant effects and social interaction deficits; Blood and brain levels of delta-9-THC [2]: increased blood and brain levels; Activity at Mu and Delta opioid receptor sites [3]: allosteric modulator
2 | CCCCCc1cc(O)c(C/C=C(\C)CCC=C(C)C)c(O)c1 [CBG, Cannabigerol] | binds to the CB2 receptor | moderate affinity 5-HT1A receptor antagonist | low affinity CB1 receptor antagonist | Activity at α2-adrenergic receptor (α2-adrenergic receptor): high affinity α2-adrenergic receptor agonist
3 | CCCCCc1cc(O)c2c(c1)OC(C)(C)c1ccc(C)cc1-2 [CBN, Cannabinol] | weak agonist | – | weak agonist | –
4 | CCCCCc1cc(O)c2c(c1)OC(C)(C)[C@@H]1CCC(C)=CC21 (stereo partly drawn) [THC, delta-9-tetrahydrocannabinol] | partial agonist activity | – | – | –
5 | CCCc1cc(O)c2c(c1)OC(C)(C)[C@@H]1CCC(C)=C[C@@H]21 [THCV, Tetrahydrocannabivarin] | – | – | CB1 receptor antagonist | –
